Test results as given in patent US20240287080A1 (IDEAYA Biosciences Inc., priority 2021, published 2024).

Each molecule was assayed against T1, Pol theta (1-899) (Homo sapiens, UniProt O75417) (assay: Pol theta ATPase activity, NADH oxidation-coupled enzymatic assay (ATPase NADH coupling: Standard Screening: hPolQ)). Details: Pol theta (1-899) 5 nM, NADH oxidation-coupled ATPase assay; compounds of Table 3.
T1 construct: Pol theta (1-899) (5 nM) in assay buffer
Type: biochemical
Method in brief: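 Rates of ATP hydrolysis taken from 60-min A340 traces of NADH oxidation via PK/LDH coupling, then fit four-parameter for IC50, Hill slope and max inhibition. Enzyme (5 nM, 1-899) and compounds preincubated 15 min before ATP 100 μM and 50-thymine ssDNA 300 nM (stock, equal volume added).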

T1 sequence (O75417 1-899): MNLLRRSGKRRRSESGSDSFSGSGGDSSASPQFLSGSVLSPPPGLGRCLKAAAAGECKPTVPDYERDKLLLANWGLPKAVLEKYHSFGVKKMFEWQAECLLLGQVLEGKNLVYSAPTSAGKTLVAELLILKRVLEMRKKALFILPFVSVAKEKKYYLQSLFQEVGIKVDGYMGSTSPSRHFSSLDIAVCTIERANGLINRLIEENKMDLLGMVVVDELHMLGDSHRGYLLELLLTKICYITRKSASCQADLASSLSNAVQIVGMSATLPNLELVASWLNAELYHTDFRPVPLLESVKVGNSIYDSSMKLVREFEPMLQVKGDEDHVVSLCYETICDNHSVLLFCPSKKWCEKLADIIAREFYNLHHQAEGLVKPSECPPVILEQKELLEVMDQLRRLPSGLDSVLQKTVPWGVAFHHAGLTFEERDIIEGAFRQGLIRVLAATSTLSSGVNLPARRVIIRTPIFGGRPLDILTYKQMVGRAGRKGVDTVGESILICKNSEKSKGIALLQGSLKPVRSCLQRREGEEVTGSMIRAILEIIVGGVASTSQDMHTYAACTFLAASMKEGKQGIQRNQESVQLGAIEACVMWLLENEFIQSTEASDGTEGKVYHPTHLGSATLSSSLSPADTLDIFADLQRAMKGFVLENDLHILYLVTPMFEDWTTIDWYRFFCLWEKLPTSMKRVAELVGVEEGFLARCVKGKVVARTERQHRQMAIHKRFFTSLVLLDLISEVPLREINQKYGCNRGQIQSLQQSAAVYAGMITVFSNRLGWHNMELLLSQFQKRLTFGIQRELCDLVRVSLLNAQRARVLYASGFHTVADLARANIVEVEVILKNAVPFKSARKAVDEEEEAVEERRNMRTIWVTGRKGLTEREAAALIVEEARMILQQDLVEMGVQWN

Question: With `COc1nnc(NC(=O)c2cnc(C)cc2-c2ccc(OC)c(F)c2)s1` [Example 419, 4-(3-fluoro-4-methoxyphenyl)-N-(5-methoxy-1,3,4-thiadiazol-2-yl)-6-methylpyridine-3-carboxamide] as the molecule, how does the IC50 read?
Answer: 1000 to 10000 nM

Question: How did the IC50 turn out when `CCc1cc(C(=O)Nc2nnc(OC)s2)c(-c2cc(Cl)ncc2OC)cn1` [Example 270, 2′-chloro-6-ethyl-5′-methoxy-N-(5-methoxy-1,3,4-thiadiazol-2-yl)-[3,4′-bipyridine]-4-carboxamide] was run?
Answer: 200 to 500 nM

Question: How did the IC50 turn out when `COc1cnc(Cl)cc1-c1cc(C)ncc1C(=O)Nc1nnc(OC2CCN(C3COC3)CC2)s1` [Example 280, 2′-chloro-5′-methoxy-6-methyl-N-(5-((1-(oxetan-3-yl)piperidin-4-yl)oxy)-1,3,4-thiadiazol-2-yl)-[4,4′-bipyridine]-3-carboxamide] was run?
Answer: ≤ 200 nM

Question: For `COc1nnc(NC(=O)c2cc(CC#N)ncc2-c2cc(Cl)ncc2OC)s1` [Example 302, 2′-chloro-6-(cyanomethyl)-5′-methoxy-N-(5-methoxy-1,3,4-thiadiazol-2-yl)-[3,4′-bipyridine]-4-carboxamide], which IC50 is on record?
Answer: ≤ 200 nM

Question: `Cc1cc(-c2cc(Cl)ncc2OC(F)F)c(C(=O)Nc2nnc(O[C@@H]3CCC[C@H](O)C3)s2)cn1` (single isomer, unassigned) [Example 252] was tested. Which IC50 did it give?
Answer: ≤ 200 nM

Question: `COc1nnc(NC(=O)c2cnc(C)cc2-c2cnc(C(F)(F)F)c(F)c2)s1` [Example 342, 5-fluoro-N-(5-methoxy-1,3,4-thiadiazol-2-yl)-6′-methyl-6-(trifluoromethyl)-[3,4′-bipyridine]-3′-carboxamide] was tested. Which IC50 did it give?
Answer: 1000 to 10000 nM

Question: With `COc1ccc(OC)c(-c2cc(C)ncc2C(=O)Nc2nnc(OC)s2)c1` [Example 486, 4-(2,5-dimethoxyphenyl)-N-(5-methoxy-1,3,4-thiadiazol-2-yl)-6-methylnicotinamide] as the molecule, how does the IC50 read?
Answer: 500 to 1000 nM

Question: `COc1nnc(NC(=O)c2cnc(C)cc2-c2ccc(OC)c(C#N)c2)s1` [Example 345, 4-(3-cyano-4-methoxyphenyl)-N-(5-methoxy-1,3,4-thiadiazol-2-yl)-6-methylpyridine-3-carboxamide] was tested. Which IC50 did it give?
Answer: 1000 to 10000 nM

Question: For `COc1cnc(Cl)cc1-c1cc(C)ncc1C(=O)Nc1nnc(OCCN(C)CC(F)(F)F)s1` [Example 317, 2′-chloro-5′-methoxy-6-methyl-N-(5-(2-(methyl(2,2,2-trifluoroethyl)amino)ethoxy)-1,3,4-thiadiazol-2-yl)-[4,4′-bipyridine]-3-carboxamide], which IC50 is on record?
Answer: ≤ 200 nM

Question: With `COc1cnc(C)c(F)c1-c1cc(C)ncc1C(=O)Nc1nnc(OC2([C@H]3CCOC3)CC2)s1` (single isomer, unassigned) [Example 287] as the molecule, how does the IC50 read?
Answer: ≤ 200 nM

Question: For `COc1nnc(NC(=O)c2cnc(C)cc2-c2cc(Cl)c([S+](C)[O-])cc2OC)s1` (single isomer, unassigned) [Example 277], which IC50 is on record?
Answer: ≤ 200 nM

Question: Which IC50 does the source give for `COc1nnc(NC(=O)c2cnc(C)cc2-c2cccc(C(=O)NC3CC3)c2)s1` [Example 344, 4-[3(cyclopropylcarbamoyl)phenyl]-N-(5-methoxy-1,3,4-thiadiazol-2-yl)-6-methylpyridine-3carboxamide] here?
Answer: 1000 to 10000 nM

Question: For `COc1cc(C(=O)Nc2nnc(OC)s2)c(-c2cc(Cl)ncc2OC)cn1` [Example 242, 2′-chloro-5′,6-dimethoxy-N-(5-methoxy-1,3,4-thiadiazol-2-yl)-[3,4′-bipyridine]-4-carboxamide], which IC50 is on record?
Answer: ≤ 200 nM

Question: Which IC50 does the source give for `COc1nnc(NC(=O)c2cnc(C)cc2-c2cn(C)c3ccccc23)s1` [Example 464, N-(5-methoxy-1,3,4-thiadiazol-2-yl)-6-methyl-4-(1-methyl-1H-indol-3-yl)pyridine-3-carboxamide] here?
Answer: 1000 to 10000 nM

Question: For `COc1cnc(C)c(F)c1-c1cc(C)ncc1C(=O)Nc1nnc(O[C@H]2C[C@H]3C[C@@H]2C[C@@H]3O)s1` (single isomer, unassigned) [Example 261], which IC50 is on record?
Answer: ≤ 200 nM

Question: Which IC50 does the source give for `COc1ccc(-c2cc(C)ncc2C(=O)Nc2nnc(OC)s2)c(OC)n1` [Example 435, 2,6-dimethoxy-N-(5-methoxy-1,3,4-thiadiazol-2-yl)-6′-methyl-[3,4′-bipyridine]-3′-carboxamide] here?
Answer: 200 to 500 nM

Question: `COc1nnc(NC(=O)c2cnc(C)cc2-c2ccc(F)c(F)c2C)s1` [Example 475, 4-(3,4-difluoro-2-methylphenyl)-N-(5-methoxy-1,3,4-thiadiazol-2-yl)-6-methylpyridine-3-carboxamide] was tested. Which IC50 did it give?
Answer: 500 to 1000 nM

Question: How did the IC50 turn out when `COc1nnc(NC(=O)c2cnc(C)cc2-c2ccc3c(c2)CNC3=O)s1` [Example 379, N-(5-methoxy-1,3,4-thiadiazol-2-yl)-6-methyl-4-(1-oxo-2,3-dihydro-1H-isoindol-5-yl)pyridine-3-carboxamide] was run?
Answer: 1000 to 10000 nM

Question: With `COc1nnc(NC(=O)c2cnc(C)cc2-c2ccc3occc(=O)c3c2)s1` [Example 438, N-(5-methoxy-1,3,4-thiadiazol-2-yl)-6-methyl-4-(4-oxo-4H-chromen-6-yl)nicotinamide] as the molecule, how does the IC50 read?
Answer: 1000 to 10000 nM

Same assay, conditions: Table 4; Pol theta (1-899) 5 nM, ATP, dT50 ssDNA

Question: Which IC50 does the source give for `COc1cnc(Cl)cc1-c1cc(C)ncc1C(=O)Nc1nnc(O[C@@H]2CCOC2)s1` [Example 23, (R)-2′-chloro-5′-methoxy-6-methyl-N-(5-((tetrahydrofuran-3-yl)oxy)-1,3,4-thiadiazol-2-yl)-(4,4′-bipyridine)-3-carboxamide] here?
Answer: ≤ 200 nM

Question: Which IC50 does the source give for `COc1nnc(NC(=O)c2cnc(C)cc2-c2cc(C)ncc2OC(F)F)s1` [Example 52, 5′-(difluoromethoxy)-N-(5-methoxy-1,3,4-thiadiazol-2-yl)-2′,6-dimethyl-(4,4′-bipyridine)-3-carboxamide] here?
Answer: ≤ 200 nM

Question: With `COc1nnc(NC(=O)c2cnc(C)cc2-c2cc(Cl)ccc2CO)s1` [Example 66, 4-(5-chloro-2-(hydroxymethyl)phenyl)-N-(5-methoxy-1,3,4-thiadiazol-2-yl)-6-methylnicotinamide] as the molecule, how does the IC50 read?
Answer: 200 to 500 nM

Question: How did the IC50 turn out when `COc1cnc(Cl)cc1-c1cc(C)ncc1C(=O)Nc1nnc(O[C@H]2CC[C@H](O)C2)s1` [Example 45, 2′-chloro-N-(5-(((1s,3s)-3-hydroxycyclopentyl)oxy)-1,3,4-thiadiazol-2-yl)-5′-methoxy-6-methyl-(4,4′-bipyridine)-3-carboxamide] was run?
Answer: ≤ 200 nM

Same assay, conditions: Table 5; Pol theta (1-899) 5 nM, ATP, dT50 ssDNA

Question: `COc1cnc(Cl)cc1-c1cc(C)ncc1C(=O)Nc1nnc(O[C@H]2CC[C@H](C(C)(C)O)CC2)s1` [Example 187, 2′-chloro-N-(5-(((1r,4r)-4-(2-hydroxypropan-2-yl)cyclohexyl)oxy)-1,3,4-thiadiazol-2-yl)-5′-methoxy-6-methyl-(4,4′-bipyridine)-3-carboxamide] was tested. Which IC50 did it give?
Answer: ≤ 200 nM

Question: With `Cc1cc(-c2cc(Cl)ncc2OC(F)F)c(C(=O)Nc2nnc(O[C@H]3COC4(CC4)C3)s2)cn1` (single isomer, unassigned) [Example 233] as the molecule, how does the IC50 read?
Answer: ≤ 200 nM

Question: Which IC50 does the source give for `Cc1cc(-c2cc(Cl)ncc2OC(F)F)c(C(=O)Nc2nnc(O[C@@H]3CCOC3)s2)cn1` [Example 82, (R)-2′-chloro-5′-(difluoromethoxy)-6-methyl-N-(5-((tetrahydrofuran-3-yl)oxy)-1,3,4-thiadiazol-2-yl)-(4,4′-bipyridine)-3-carboxamide] here?
Answer: ≤ 200 nM

Question: How did the IC50 turn out when `COc1nnc(NC(=O)c2cnc(C)cc2-c2cccn3nnnc23)s1` [Example 85, N-(5-methoxy-1,3,4-thiadiazol-2-yl)-6-methyl-4-(tetrazolo(1,5-a)pyridin-8-yl)nicotinamide] was run?
Answer: 1000 to 10000 nM

Question: How did the IC50 turn out when `COc1cnc(Cl)cc1-c1cc(C)ncc1C(=O)Nc1nnc(O[C@H]2CCC[C@H](O)C2)s1` (single isomer, unassigned) [Example 161] was run?
Answer: ≤ 200 nM

Question: Which IC50 does the source give for `COc1cnc(Cl)c(F)c1-c1cc(C)ncc1C(=O)Nc1nnc(O[C@H]2CCC[C@@H](O)C2)s1` (single isomer, unassigned) [Example 154] here?
Answer: ≤ 200 nM

Question: Which IC50 does the source give for `COc1cnc(Cl)cc1-c1cc(C)ncc1C(=O)Nc1nnc(O[C@H]2CCC[C@@](C)(O)C2)s1` (racemic) [Example 177, rac-2′-chloro-N-(5-(((1R,3S)-3-hydroxy-3-methylcyclohexyl)oxy)-1,3,4-thiadiazol-2-yl)-5′-methoxy-6-methyl-(4,4′-bipyridine)-3-carboxamide] here?
Answer: 200 to 500 nM

Question: Which IC50 does the source give for `COc1cnc(Cl)cc1-c1cc(C)ncc1C(=O)Nc1nnc(O[C@@H]2CCC[C@H](O)C2)s1` (single isomer, unassigned) [Example 160] here?
Answer: ≤ 200 nM

Question: For `COc1cnc(Cl)cc1-c1cc(C)ncc1C(=O)Nc1nnc(O[C@H]2CCC[C@@](C)(O)C2)s1` (single isomer, unassigned) [Example 179], which IC50 is on record?
Answer: ≤ 200 nM

Question: `COc1cnc(Cl)cc1-c1cc(C)ncc1C(=O)Nc1nnc(O[C@H]2CC[C@@H]2O)s1` (single isomer, unassigned) [Example 119] was tested. Which IC50 did it give?
Answer: ≤ 200 nM
